In patent publication US9273054B2, “Substituted pyrimido[1,6-a]pyrimidines as Lp-PLA2 inhibitors” (Glaxo Group Limited, priority 2011, dated 2016):

What was measured:
[1] = test system: proinflammatory (M1) and anti-inflammatory (M2) markers in macrophages; assay: Ex vivo analysis of M1 and M2 markers in macrophages of EAE rats by realtime PCR; set-up: species or system rat; settings: splenic macrophages day 13 post MBP-immunization and CNS infiltrating macrophages
Description: Ex vivo analysis of proinflammatory (M1) and anti-inflammatory (M2) markers in control and compound treated EAE rats. Splenic macrophages were harvested at day 13 post MBP-immunization and assayed for expression of a variety of markers by realtime PCR. CNS infiltrating cells were harvested and macrophages were analyzed for expression of M1 and M2 markers by realtime PCR.

[2] = test system: EAE rats; assay: Rat experimental autoimmune encephalomyelitis (EAE) model, preventive treatment; type: in vivo
Description: A further study was carried out to study the impact of Lp-PLA2 inhibitors on modulating M1/M2 imbalance. In this study, rats were induced to develop experimental autoimmune encephalomyelitis (EAE) by immunization with myelin basic protein (MBP) antigen and treated with a known Lp-PLA2 inhibitor: 5-((9-Methoxy-4-oxo-6,7-dihydro-4H-pyrimido[6,1-a]isoquinolin-2-yl)oxy)-2-(3-(trifluoromethyl)phenoxy)benzonitrile (See PCT application no. PCT/CN2011/001597). In this preventive treatment model, the compound was administered at day 0 (day of immunization) and continued to administer until day 22. The study lasted for 25 days. Rats were subsequently monitored for symptoms of EAE. Rats were immunized with MBP to develop EAE and symptoms were monitored daily. Plasma Lp-PLA2 activity, O×LDL, and LysoPC concentration were determined at different time points through the course of EAE.

COc1ccc2c(c1)CCn1c-2cc(Oc2ccc(Oc3cccc(C(F)(F)F)c3)c(C#N)c2)nc1=O [5-((9-Methoxy-4-oxo-6,7-dihydro-4H-pyrimido[6,1-a]isoquinolin-2-yl)oxy)-2-(3-(trifluoromethyl)phenoxy)benzonitrile]
M1 markers expression [1]: decrease in M1 markers
M2 markers expression [1]: increase in M2 markers
plasma Lp-PLA2 activity ([2]; rat EAE plasma): decreased Lp-PLA2 activity
plasma LysoPC levels ([2]; rat EAE plasma): decreased
clinical disease (EAE) ([2]; rat EAE, MBP immunization, administered day 0 until day 22): reduction in clinical disease
